According to patent publication US20230141863A1, “Small Molecule Inhibitors Targeting the Sodium Channel Tamoxifen Receptor and Uses Thereof” (Northwestern University, priority 2021, published 2023):
Read-outs that look alike come from different tables or passages of the source.

System: DRG action potentials
Assay: Current clamp recording of cultured DRG neuron action potentials
Format: cell-based, mouse
Settings: for IC50: Mus musculus, DRG neuron, 2-4 minutes of extracellular drug treatment
Text: FIG. 4. N-desmethyl tamoxifen inhibits DRG neuronal transmission. A) Exemplar action potentials recorded from an isolated DRG neuron in control and ND-Tam-treated conditions using a 1 second, 80 pA injection of current. After the experiment was complete, drug was washed out of the bath for five minutes and recovery from inhibition was retested. Consistent with previous reports, the resting membrane potential of the DRG neurons was −53.4±5 mV (Error is equal to S.D., n=109) (PMID: 8052416). B, C) The potency of ND-Tam inhibition on DRG action potential frequency and peak amplitude. Open symbols represent responses from individual cells while filled symbols represent average response per concentration. Error is equal to S.E.M. and the number of cells tested per treatment group is indicated within the parentheses. D, E) A comparison of the potency of cannabidiol (CBD) and carbamazepine (CBZ) inhibition on action potential frequency and peak amplitude. As done previously, drug concentration-INa inhibition relationships were fit to the Hill equation. Open symbols represent responses from individual cells while filled symbols represent average response per concentration. Error is equal to S.E.M. and the number of cells tested per treatment group is indicated within the parentheses.
FIG. 10. N-desmethyl tamoxifen inhibits spontaneous action potentials in sensory neurons. A) Exemplar spontaneous action potentials, recorded from a DRG neuron without injecting current, inhibited by 100 nM N-desmethyl tamoxifen. B) Morphology of a single spontaneous action potential in DRG neuron C) Inhibition of spontaneous action potential frequency by 100 nM ND-Tam (P=0.04). Open symbols represent responses from individual cells and filled symbols represent the average response. Error is equal to S.E.M. from 6 spontaneously firing DRG neurons.
DRG neurons act as a filter to electrical information from the periphery, required for the perception of pain, generated by several types of ion channels, including Navs. For that reason, the inventors compared the pharmacology of ND-Tam against cultured DRG action potentials recorded using current clamp (FIG. 4A). The inventors then compared DRG action potential frequency and amplitude before and after 2-4 minutes of extracellular drug treatment (FIG. 4A-C, FIG. 14). […] After exchanging the drug for control saline for 2 minutes, ND-Tam inhibition of action potential frequency and peak amplitude was persistent (FIG. 4A), which is consistent with the observed slow dissociation of the drug with sodium channels (FIG. 1B, D).
Dorsal root ganglia were isolated using a modified version of the previously described protocol (PMID: 26864470). All animal procedures were approved by the Institutional Animal Care and Use Committee at the Feinberg Medical School, Northwestern University. The spinal columns of 4-6-week-old […] or Nav1.8-Tomato mice (Nav1.8-Td) were removed and DRG neurons from all spinal levels were isolated for primary culture (PMID: 33827672, PMID: 31351964). The collected DRGs, containing both neuronal and non-neuronal cells, were acutely dissociated in DMEM with collagenase IV (2 mg/mL) for 30 minutes, followed by papain (25 U/mL) for 30 minutes. The cells were then triturated, filtered through a 40 μm cell strainer to remove non-dissociated cells, and washed with DMEM. […]

CC/C(=C(\c1ccccc1)c1ccc(OCCNC)cc1)c1ccccc1 [ND-Tam, 2-[4-[(Z)-1,2-diphenylbut-1-enyl]phenoxy]-N-methylethanamine]
potency against action potential frequency and peak amplitude compared with CBZ and CBD (in words): more potent inhibitor of DRG action potential frequency and peak amplitude than CBZ and CBD | reduction of the frequency of spontaneous sensory neuron action potentials (100 nM, three-minute extracellular application, n=6, P=0.04): 91% | IC50 (80 pA of injected current, read-out: IC50 against action potential peak amplitude): 1300 nM | IC50 (elicited by 80 pA of injected current, read-out: IC50 against action potential firing frequency): 119 nM | inhibition of action potential frequency and peak amplitude after washout (in words) (after exchanging the drug for control saline for 2 minutes): persistent
